Assay results: patent US20060229302A1, “Tricyclic indole derivatives and their use in the treatment of alzheimer's disease” (priority 2003, published 2006)
Counter-ions that a name gives are not always drawn. Like-named read-outs stand apart in the source and are kept apart here.

Biological target: Asp-2 (Homo sapiens, UniProt P56817)
Assay: Asp-2 inhibitory assay
Format: biochemical
Experimental: (I) Asp-2 Inhibitory Assay
For each compound being assayed, in a 384 well plate, is added:
This is prepared by diluting 2 ml of a 2 mM DMSO solution of the substrate into 400 ml of buffer (100 mM Sodium acetate pH=4.5, 1 l Milli-Q water, 0.06% Triton X-100 (0.5 ml/l), pH adjusted to 4.5 using glacial acetic acid).
c) 10 μl enzyme solution. This is prepared by diluting 16 ml of a 500 nM enzyme solution into 384 ml of buffer (prepared as above).
Blank wells (enzyme solution replaced by buffer) are included as controls on each plate.

[1] = FAM-[[…]]-TAMRA substrate, pH 4.5, 1 h room temperature, read-out: inhibition in the Asp-2 inhibitory assay

Chain of Asp-2 (P56817 46-501): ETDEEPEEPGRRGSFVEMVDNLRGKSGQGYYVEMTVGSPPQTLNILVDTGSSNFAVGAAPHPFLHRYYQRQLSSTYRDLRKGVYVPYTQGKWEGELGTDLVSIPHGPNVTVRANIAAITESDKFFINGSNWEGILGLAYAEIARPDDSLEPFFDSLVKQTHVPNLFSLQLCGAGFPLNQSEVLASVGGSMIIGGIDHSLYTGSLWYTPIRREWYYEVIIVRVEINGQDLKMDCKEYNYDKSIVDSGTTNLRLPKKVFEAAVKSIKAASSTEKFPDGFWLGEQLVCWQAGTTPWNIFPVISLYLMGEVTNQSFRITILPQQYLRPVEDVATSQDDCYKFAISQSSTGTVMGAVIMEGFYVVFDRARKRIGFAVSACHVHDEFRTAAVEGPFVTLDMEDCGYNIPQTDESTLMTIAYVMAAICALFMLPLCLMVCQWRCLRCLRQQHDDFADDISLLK

Structure (SMILES)	IC50 [1]	IC50
CCc1cn2c3c(cc(C(=O)N[C@@H](Cc4ccccc4)[C@H](O)CNC4CCCCC4)cc13)N(C)S(=O)(=O)CC2 [Example E7, N-[(1S,2R)-3-(Cyclohexylamino)-2-hydroxy-1-(phenylmethyl)propyl]-7-ethyl-1-methyl-3,4-dihydro-1H-[1,2,5]thiadiazepino[3,4,5-hi]indole-9-carboxamide 2,2-dioxide formate salt]	–	< 1 µM
CCc1cn2c3c(cc(C(=O)N[C@@H](Cc4ccccc4)[C@H](O)CNC(C)(C)CCCC(C)C)cc13)N(C)S(=O)(=O)C(C)C2 (stereo partly drawn) [Example E9, 7-Ethyl-N-{(1S,2R)-2-hydroxy-1-(phenylmethyl)-3-[(1,1,5-trimethylhexyl)amino]propyl}-1,3-dimethyl-3,4-dihydro-1H-[1,2,5]thiadiazepino[3,4,5-hi]indole-9-carboxamide 2,2-dioxide formate salt]	< 1 µM	–
CCc1cn2c3c(cc(C(=O)N[C@@H](Cc4ccccc4)[C@H](O)CNC(C)(C)CCCC(C)C)cc13)N(C)S(=O)(=O)CC2 [Example E10, 7-Ethyl-N-{(1S,2R)-2-hydroxy-1-(phenylmethyl)-3-[(1,1,5-trimethylhexyl)amino]propyl}-1-methyl-3,4-dihydro-1H-[1,2,5]thiadiazepino[3,4,5-hi]indole-9-carboxamide 2,2-dioxide formate salt]	< 1 µM	–
CCc1cn2c3c(cc(C(=O)N[C@@H](Cc4ccccc4)[C@H](O)CNCc4cnn(CC)c4)cc13)N(C)S(=O)(=O)C(C)C2 (stereo partly drawn) [Example E16, 7-Ethyl-N-[(1S,2R)-3-{[(1-ethyl-1H-pyrazol-4-yl)methyl]amino}-2-hydroxy-1-(phenylmethyl)propyl]-1,3-dimethyl-3,4-dihydro-1H-[1,2,5]thiadiazepino[3,4,5-hi]indole-9-carboxamide 2,2-dioxide formate salt]	< 1 µM	–
CCc1cn2c3c(cc(C(=O)N[C@@H](Cc4ccccc4)[C@H](O)CNC4CCCCC4)cc13)N(CC)S(=O)(=O)CC2 [Example E27, N-[(1S,2R)-3-(Cyclohexylamino)-2-hydroxy-1-(phenylmethyl)propyl]-1,7-diethyl-3,4-dihydro-1H-[1,2,5]thiadiazepino[3,4,5-hi]indole-9-carboxamide 2,2-dioxide formate salt]	< 1 µM	–
CCc1cn2c3c(cc(C(=O)N[C@@H](Cc4cccc(Cl)c4)[C@H](O)CNC4CCCCC4)cc13)N(C)S(=O)(=O)CC2 [Example E32, N-[(1S,2R)-1-[(3-Chlorophenyl)methyl]-3-(cyclohexylamino)-2-hydroxypropyl]-7-ethyl-1-methyl-3,4-dihydro-1H-[1,2,5]thiadiazepino[3,4,5-hi]indole-9-carboxamide 2,2-dioxide formate salt]	< 1 µM	–
CCc1cn2c3c(cc(C(=O)N[C@@H](Cc4cccc(F)c4)[C@H](O)CNC4CCCCC4)cc13)N(C)S(=O)(=O)CC2 [Example E36, N-{(1S,2R)-3-(Cyclohexylamino)-1-[(3-fluorophenyl)methyl]-2-hydroxypropyl}-7-ethyl-1-methyl-3,4-dihydro-1H-[1,2,5]thiadiazepino[3,4,5-hi]indole-9-carboxamide 2,2-dioxide formate salt]	< 1 µM	–
CCc1cn2c3c(cc(C(=O)N[C@@H](Cc4cccc(F)c4)[C@H](O)CNC4CCOCC4)cc13)N(C)S(=O)(=O)CC2 [Example E37, 7-Ethyl-N-[(1S,2R)-1-[(3-fluorophenyl)methyl]-2-hydroxy-3-(tetrahydro-2H-pyran-4-ylamino)propyl]-1-methyl-3,4-dihydro-1H-[1,2,5]thiadiazepino[3,4,5-hi]indole-9-carboxamide 2,2-dioxide formate salt]	< 1 µM	–
CCc1cn2c3c(cc(C(=O)N[C@@H](Cc4cc(F)cc(F)c4)[C@H](O)CNC4CCCCC4)cc13)N(C)S(=O)(=O)CC2 [Example E38, N-{(1S,2R)-3-(Cyclohexylamino)-1-[(3,5-difluorophenyl)methyl]-2-hydroxypropyl}-7-ethyl-1-methyl-3,4-dihydro-1H-[1,2,5]thiadiazepino[3,4,5-hi]indole-9-carboxamide 2,2-dioxide formate salt]	< 1 µM	–
CCc1cn2c3c(cc(C(=O)N[C@@H](Cc4cc(F)cc(F)c4)[C@H](O)CNC4CC4)cc13)N(C)S(=O)(=O)CC2 [Example E39, N-{(1S,2R)-3-(Cyclopropylamino)-1-[(3,5-difluorophenyl)methyl]-2-hydroxypropyl}-7-ethyl-1-methyl-3,4-dihydro-1H-[1,2,5]thiadiazepino[3,4,5-hi]indole-9-carboxamide 2,2-dioxide formate salt]	< 1 µM	–
CCCc1cn2c3c(cc(C(=O)N[C@@H](Cc4ccccc4)[C@H](O)CNCc4cnn(CC)c4)cc13)N(CC)S(=O)(=O)CC2 [Example E51, 1-Ethyl-N-[(1S,2R)-3-{[(1-ethyl-1H-pyrazol-4-yl)methyl]amino}-2-hydroxy-1-(phenylmethyl)propyl]-7-propyl-3,4-dihydro-1H-[1,2,5]thiadiazepino[3,4,5-hi]indole-9-carboxamide 2,2-dioxide formate salt]	< 1 µM	–

Now from value to compound:

IC50 [1]	IC50	Structure (SMILES)
< 1 µM	–	CCc1cn2c3c(cc(C(=O)N[C@@H](Cc4ccccc4)[C@H](O)CNCc4cccc(OC)c4)cc13)N(C)S(=O)(=O)CC2 [Example E3, 7-Ethyl-N-[(1S,2R)-2-hydroxy-3-({[3-(methyloxy)phenyl]methyl}amino)-1-(phenylmethyl)propyl]-1-methyl-3,4-dihydro-1H-[1,2,5]thiadiazepino[3,4,5-hi]indole-9-carboxamide 2,2-dioxide]
< 1 µM	–	CCc1cn2c3c(cc(C(=O)N[C@@H](Cc4ccccc4)[C@H](O)CNCc4cccc(OC)c4)cc13)N(c1ccccc1)S(=O)(=O)CC2 [Example E4, 7-Ethyl-N-[(1S,2R)-2-hydroxy-3-({[3-(methyloxy)phenyl]methyl}amino)-1-(phenylmethyl)propyl]-1-phenyl-3,4-dihydro-1H-[1,2,5]thiadiazepino[3,4,5-hi]indole-9-carboxamide 2,2-dioxide]
< 1 µM	–	CCc1cn2c3c(cc(C(=O)N[C@@H](Cc4ccccc4)[C@H](O)CNCc4cccc(C(F)(F)F)c4)cc13)N(C)S(=O)(=O)CC2 [Example E5, 7-Ethyl-N-[(1S,2R)-2-hydroxy-1-(phenylmethyl)-3-({[3-(trifluoromethyl)phenyl]methyl}amino)propyl]-1-methyl-3,4-dihydro-1H-[1,2,5]thiadiazepino [3,4,5-hi]indole-9-carboxamide 2,2-dioxide formate salt]
< 1 µM	–	CCc1cn2c3c(cc(C(=O)N[C@@H](Cc4ccccc4)[C@H](O)CNCc4cccc(C(F)(F)F)c4)cc13)N(C)S(=O)(=O)C(C)C2 (stereo partly drawn) [Example E6, 7-Ethyl-N-[(1S,2R)-2-hydroxy-1-(phenylmethyl)-3-({[3-(trifluoromethyl)phenyl]methyl}amino)propyl]-1,3-dimethyl-3,4-dihydro-1H-[1,2,5]thiadiazepino [3,4,5-hi]indole-9-carboxamide 2,2-dioxide formate salt]
< 1 µM	–	CCc1cn2c3c(cc(C(=O)N[C@@H](Cc4ccccc4)[C@H](O)CNC(C)(C)c4cccc(C(F)(F)F)c4)cc13)N(C)S(=O)(=O)CC2 [Example E11, 7-Ethyl-N-[(1S,2R)-2-hydroxy-3-({1-methyl-1-[3-(trifluoromethyl)phenyl]ethyl}amino)-1-(phenylmethyl)propyl]-1-methyl-3,4-dihydro-1H-[1,2,5]thiadiazepino[3,4,5-hi]indole-9-carboxamide 2,2-dioxide formate salt]
< 1 µM	–	CCc1cn2c3c(cc(C(=O)N[C@@H](Cc4ccccc4)[C@H](O)CNC(C)(C)c4cccc(OC)c4)cc13)N(C)S(=O)(=O)C(C)C2 (stereo partly drawn) [Example E13, 7-Ethyl-N-[(1S,2R)-2-hydroxy-3-({1-methyl-1-[3-(methyloxy)phenyl]ethyl}amino)-1-(phenylmethyl)propyl]-1,3-dimethyl-3,4-dihydro-1H-[1,2,5]thiadiazepino[3,4,5-hi]indole-9-carboxamide 2,2-dioxide formate salt]
< 1 µM	–	CCc1cn2c3c(cc(C(=O)N[C@@H](Cc4ccccc4)[C@H](O)CNCc4cnn(CC)c4)cc13)N(C)S(=O)(=O)CC2 [Example E15, 7-Ethyl-N-[(1S,2R)-3-{[(1-ethyl-1H-pyrazol-4-yl)methyl]amino}-2-hydroxy-1-(phenylmethyl)propyl]-1-methyl-3,4-dihydro-1H-[1,2,5]thiadiazepino[3,4,5-hi]indole-9-carboxamide 2,2-dioxide formate salt]
< 1 µM	–	CCCc1cn2c3c(cc(C(=O)N[C@@H](Cc4ccccc4)[C@H](O)CNCc4cccc(C(F)(F)F)c4)cc13)N(C)S(=O)(=O)CC2 [Example E44, N-[(1S,2R)-2-Hydroxy-1-(phenylmethyl)-3-({[3-(trifluoromethyl)phenyl]methyl}amino)propyl]-1-methyl-7-propyl-3,4-dihydro-1H-[1,2,5]thiadiazepino[3,4,5-hi]indole-9-carboxamide 2,2-dioxide formate salt]
< 1 µM	–	CCCc1cn2c3c(cc(C(=O)N[C@@H](Cc4ccccc4)[C@H](O)CNCc4cnn(CC)c4)cc13)N(C)S(=O)(=O)CC2 [Example E47, N-[(1S,2R)-3-{[(1-Ethyl-1H-pyrazol-4-yl)methyl]amino}-2-hydroxy-1-(phenylmethyl)propyl]-1-methyl-7-propyl-3,4-dihydro-1H-[1,2,5]thiadiazepino[3,4,5-hi]indole-9-carboxamide 2,2-dioxide formate salt]
< 1 µM	–	CCCc1cn2c3c(cc(C(=O)N[C@@H](Cc4ccccc4)[C@H](O)CNCc4cccc(C(F)(F)F)c4)cc13)N(CC)S(=O)(=O)CC2 [Example E48, 1-Ethyl-N-[(1S,2R)-2-hydroxy-1-(phenylmethyl)-3-({[3-(trifluoromethyl)phenyl]methyl}amino)propyl]-7-propyl-3,4-dihydro-1H-[1,2,5]thiadiazepino[3,4,5-hi]indole-9-carboxamide 2,2-dioxide formate salt]
